# Experimental data from patent US20250290117A1, “MOLECULAR PHENOTYPIC ANTIMICROBIAL SUSCEPTIBILITY TESTING” (priority 2024, published 2025).
# Columns and labels:
# Escherichia coli = test: Traditional culture-based antimicrobial susceptibility test; type: cell-based
# Description: Table 3 illustrates the results of an example antimicrobial agent susceptibility test of the current application versus a traditional culture-based antimicrobial agent susceptibility test for multiple Escherichia coli isolates, in accordance with one or more embodiments of the disclosure. These specimens underwent extraction or DNA purification prior to PCR. As in Tables 1 and 2, the results of the test of the current application are similar to the results from the traditional test. […]
# Table 8 illustrates the results of an example antimicrobial agent susceptibility test of the current application versus a traditional culture-based antimicrobial agent susceptibility test for a low level positive with <10,000 cells/mL in the original specimen. These specimens were tested with direct PCR (e.g., no extraction DNA purification step prior to PCR) after 16 hours of incubation. As in Tables 1, 2, 3, 5, and 7, the results of the test are similar to the traditional test. […]
# E. coli = test: Molecular phenotypic antimicrobial susceptibility test with direct PCR (no extraction DNA purification step); type: cell-based, Escherichia coli
# Procedure: Detection of Molecular Phenotypic Antimicrobial Susceptibility. Disclosed herein are the methods for the detection of phenotypic antimicrobial susceptibility via molecular methods. The present invention describes how a specimen 100 with a known microbial load is incubated and then exposed to a panel of antimicrobial agents to determine sensitivity (prevention of growth) or resistance (allowance of growth) to the specific antimicrobial agents tested utilizing molecular methods.
# Sample Collection. Specimens 100 are collected from patients using sterile collection processes that are employed in routine clinical care. Specimens are transported to the testing facility in boric acid preservative. Specimens 100 are subsequently divided into a first sample 104 and a second sample 108.
# Preparation of the Specimens for Testing. The specimens 100 are put through a pathogen identification process using PCR technology (e.g., using the first sample 104). The process for pathogen isolation includes steps of harvesting the pathogen (e.g., via centrifugation), isolating pathogen DNA via a DNA isolation and/or purification kit, and performing PCR on the pathogen DNA via PCR components (e.g., primers, enzymes, buffers) as would be known to the skilled artisan. Simultaneously, an additional aliquot of the same specimen (e.g., the second sample 108) is placed with liquid culture media and incubated for 4-6 hours. This aliquot is used for antimicrobial susceptibility testing if indicated based on the pathogen detection results. After pathogen identification is completed and if more than 10,000 cells/mL of bacteria (e.g., eligible bacteria) are detected in the source specimen, the second sample 108 then enters the antimicrobial susceptibility phase of testing. Specimens 100 with lower pathogen loads could also be utilized in the antibiotic susceptibility phase of testing with or without a longer incubation period.
# Preparation of Antimicrobial Susceptibility Testing Plates. Antimicrobial solutions are prepared at known concentrations. The specific antimicrobials and their concentrations are selected based on the pathogen of interest and the described antimicrobial resistance breakpoints for that specimen pathogen and antimicrobial combination. These antimicrobials have been selected based on those commonly utilized by healthcare providers in routine clinical care for the specific type of suspected infection. The number and types of antimicrobials utilized can be customized based on the infection source, pathogen detected, patient-specific factors such as allergies or other health conditions (e.g., chronic kidney disease or concurrent medication use), or healthcare provider preferences such as antimicrobial availability or cost.
# The antimicrobial solutions are prepared in liquid culture media (such as Muller Hinton Broth) to achieve the desired antimicrobial concentration and are then stored at −80° C. until use. For a given specimen, each antimicrobial is tested at a single or multiple antimicrobial concentration(s) which is its established breakpoints for sensitivity. The antimicrobial solutions are prepared and plated out for each specific pathogen. This allows ease of use on the day of testing after defrosting the plate 112. Table 1, which illustrates the results of molecular phenotypic antimicrobial susceptibility testing when more than one organism is present in the source specimen, provides an example of an antimicrobial plate 112 prepared for this purpose. Of note, control wells containing only culture media are present on all plates 112. This allows for evaluation of pathogen load when no antimicrobial is present.
# Specimen Exposure to Antimicrobial Agents. The 1 mL aliquot of the specimen 100 previously mixed with culture media and incubated is obtained. Using optical density measurements as a guide, the specimen 100 is diluted to 0.5 McFarland. […]
# [1] = E. coli isolate JJ1887, direct PCR, Ct at control (average) 12.832
# [2] = E. coli isolate JJ1887, direct PCR, at sensitive breakpoint
Substance,Traditional Culture Results (Escherichia coli; E. coli #1 - WDCM 00090 - 6.2×E3),Traditional Culture Results (Escherichia coli; E. coli #2 - WDCM 00090 - 6.2×E3),Traditional Culture Result (Escherichia coli; E. coli isolate 1 (Table 3)),Traditional Culture Result (Escherichia coli; E. coli isolate 2 (Table 3)),Traditional Culture Result (Escherichia coli; E. coli isolate 3 (Table 3)),Traditional Culture Result (Escherichia coli; E. coli isolate 4 (Table 3)),Traditional Culture Result (Escherichia coli; E. coli isolate 5 (Table 3)),Traditional Culture Result (Escherichia coli; E. coli isolate JJ1887),"Molecular Antimicrobial Susceptibility Result (E. coli; E. coli #1 - WDCM 00090 - 6.2×E3, specimen with <10,000 cells/mL, direct PCR after 16 hours of incubation)","Ct at Sensitive Breakpoint (E. coli; E. coli #1 - WDCM 00090 - 6.2×E3, specimen with <10,000 cells/mL, direct PCR after 16 hours of incubation, Ct at control 13.787)","Molecular Antimicrobial Susceptibility Result (E. coli; E. coli #2 - WDCM 00090 - 6.2×E3, specimen with <10,000 cells/mL, direct PCR after 16 hours of incubation)","Ct at Sensitive Breakpoint (E. coli; E. coli #2 - WDCM 00090 - 6.2×E3, specimen with <10,000 cells/mL, direct PCR after 16 hours of incubation, Ct at control 13.46)",Ct at Sensitive Breakpoint (E. coli; [1]),Molecular Antimicrobial Susceptibility Result (E. coli; [2])
Piperacillin/Tazobactam,Sensitive,Sensitive,Sensitive,Sensitive,Sensitive,Sensitive,Sensitive,Sensitive,Sensitive (Antimicrobial wells with pathogen load detected below the control wells (typically >2 cycle thresholds later) may be reported as Sensitive),26.78,Sensitive (Antimicrobial wells with pathogen load detected below the control wells (typically >2 cycle thresholds later) may be reported as Sensitive),27.46,23.923,Sensitive (Antimicrobial wells with pathogen load detected below the control wells (typically >2 cycle thresholds later) may be reported as Sensitive)
Trimethoprim/Sulfamethoxazole [TMP/SMX],,,Sensitive,Sensitive,Sensitive,Resistant,Sensitive,Resistant,,,,,13.414,Resistant
